{"source": "patent US11452752B2", "about": "“Composition for antioxidation, anti-inflammation, or osteoclast differentiation inhibition” (NATURAL ENDOTECH CO., LTD., priority 2017, dated 2022)", "key": {"[1]": {"tested_on": "nitric oxide (NO) production in RAW264.7 cells", "test": "Nitric oxide (NO) production inhibition, GRIESS assay, LPS-stimulated cells", "assay_type": "cell-based", "conditions": "12.5 μM; 500 ng/mL LPS, 24 hours", "protocol": "After the incubation, 100 μL of the supernatant was taken and transferred into a 96-well plate, and 100 μL of GRIESS solution was added, followed by incubation for 10 minutes. Thereafter, the absorbance was measured at 540 nm using a microplate reader to determine the NO production inhibitory effect."}, "[2]": {"tested_on": "osteoclast differentiation of Raw 264.7 cells", "test": "RANKL-induced osteoclast differentiation inhibition (osteoclast count)", "assay_type": "cell-based", "conditions": "Mus musculus, RAW264.7, 96 h; 10 mM; 50 ng/mL RANKL, 4 days; read-out: osteoclast differentiation inhibitory effect", "protocol": "The media were removed after the incubation, followed by washing with PBS, and then the cells were fixed and stained using a leukocyte acid phosphatase kit (Sigma). After the staining, the osteoclasts were counted using a microscope, and the osteoclast count in a sample was expressed as a percentage relative to the control."}}}
{"smiles": "Cc1ccc(-c2cc(C(F)(F)F)nn2-c2ccc(S(N)(=O)=O)cc2)cc1", "note": "[celecoxib]", "values": [{"measurement": "NO production", "setting": "[1]", "result": 46.7, "unit": "%"}]}
{"smiles": "NCCCC(O)(P(=O)(O)O)P(=O)(O)O", "note": "[alendronate]", "values": [{"measurement": "inhibition at 10000 µM", "setting": "[2]", "result": 72.2, "unit": "%"}]}
